The subject of data set [1] is BxPC-3 human pancreatic cancer cells. Kind of data set: Cell Viability and Proliferation Assay, BxPC-3. As to conditions: after 24 incubation. It is filed as cell-based. How it is done:
(§1) Cell Viability and Proliferation Assays. To assess the chemosensitivity of tumor cells, cell viability is measured by CellTiter-Glo® Luminescent Cell Viability Assay (Promega; Wis., USA) per the manufacturer's instruction. Briefly, 5×10^3 to 7×10^5 cells/ml are cultured in sterile 96-well plates in the presence of increasing concentrations of the drugs (test article, 0 to 100 μM), or vehicle in RPMI medium. The plates are then incubated for 24 to 96 h, and then 100 μl of CellTiter-Glo reagent is added to lyse the cells. After a 10-min incubation at room temperature, the luminescence is recorded in a luminometer with an integration time of 1 s per well. The luminescence signals for the drug-treated cells are normalized by the luminescence signal obtained from vehicle-treated cells. As an alternative method to quantitate cell viability, the trypan blue exclusion dye method was used. Vehicle- or drug-treated cells were assayed by adding trypan blue solution (0.4% in phosphate-buffered saline [PBS]) to the culture medium. After 3 min, the number of dead cells that retained the dye is compared to the total number of cells to calculate cell viability. GraphPad Prism 5 software is used to calculate IC50 and plot effect-dose curve of drugs. Multiplate reader: EnVision 2104 (PerkinElmer). % of control variability=100*[(X(drug_treated)−L(baseline))/(H(vehicle_control)−L(baseline))]. […]

The subject of data set [2] is SK-HEP-1 human liver cancer cells. Put plainly: Cell Viability and Proliferation Assay, SK-HEP-1. The format is cell-based. As to conditions: SK-HEP1, after 24 incubation. How it is done:
as §1

In data set [3] the test system is carrageenan-induced pain in rats. Put plainly: Carrageenan Pain Model. As to conditions: carrageenan rat model, 150 mg/kg oral dose, compared to indomethacin. The format is in vivo, Sprague-Dawley rats. How it is done:
Carrageenan Pain Model The carrageenan model is a fast, reliable model used to assess the ability of analgesics to block inflammatory pain. The analgesic effects of test article combinations on pain generation are assayed using the carrageenan-induced pain model in rats. Adult male Sprague-Dawley rats are administered study drugs orally (vehicle, compounds of present disclosure) once daily for 2 days (day −2 and day −1) and 30 minutes prior to the carrageenan injection on day 0 (time=0). For the carrageenan injection, animals are lightly anesthetized and 0.1 ml of 2% carrageenan is injected into the plantar surface of the right hind paw. The positive control indomethacin (30 mg/kg, p.o.) is administered orally immediately before the carrageenan injection. Paw volumes (right and left) are measured using a Plethysmometer before drug administration on day −2 and serve as a baseline measurement. The paw volumes are measured again two hours post carrageenan injection. The degree of mechanical allodynia is measured by a blinded observer using Von Frey filaments applied to the plantar surface of the hind paws in an increasing numerical order. Each filament increases the force applied on the paw. The filaments are applied until animal paw withdrawal is achieved. […] Results are expressed as mean change from baseline across five timepoints post carrageenan injection.

The target of data set [4] is ARAF (Homo sapiens, UniProt P10398). Put plainly: radiometric kinase assay, other kinases: ARAF. It is filed as biochemical. The note with it: duplicate. How it is done:
(§2) Compound inhibition in a radiometric based mixed micelle assay: In a final reaction volume of 25 μL, TrkA (h) ([…]) is incubated with the kinase reaction buffer (20 mM HEPES (pH 7.5), 10 mM MgCl2, 1 mM EGTA, 0.02% Brij 35, 0.02 mg/ml BSA, 0.1 mM Na3VO4, 2 mM DTT, 1% DMSO), 0.2 mg/ml substrate PolyEY(4:1) and […], and [^33P-ATP](specific activity approx. 500 cpm/pmol, concentration as required). The reaction is initiated by the addition of the MgATP mix. After incubation for at least 40 minutes at room temperature, the reaction is stopped by the addition of 5 μL of a 3% phosphoric acid solution. 10 μL of the reaction is then spotted onto a P30 filtermat and washed three times for 5 minutes in 75 mM phosphoric acid and once in methanol prior to drying and scintillation counting. TrkA: Recombinant Human Cytoplasmic Domain (amino acids 441-796), Histidine-tagged, expressed in insect cells. Activated in vitro via auto-phosphorylation. Mw=42.8 kDa. Substrates for kinases: poly(EY) for TRKA; poly(EY)(4:1) with 2 mM MnCl2, average Mw=16 kDa Standard conditions (unless otherwise specified): 30 nM TRKA, 0.2 mg/ml poly(EY)+2 mM MnCl2, and 10 μM ([γ-^33P]) ATP. Using the similar assay condition with other kinases of recombinant human cytoplasmic domain, the activities of other kinases could be also measured.

Data set [5] addresses PKCalpha (Homo sapiens, UniProt P17252). Kind of data set: radiometric kinase assay, other kinases: PKCalpha. It is filed as biochemical. The note with it: duplicate. On the procedure: as §2
Data set [6] deals with CDK2/cyclinE (Homo sapiens, UniProt P24941). Kind of data set: radiometric kinase assay, other kinases: CDK2/cyclinE. The format is biochemical. The note with it: duplicate. How it is done: as §2
Data set [7] has as its target FYN (Homo sapiens, UniProt P06241). Kind of data set: radiometric kinase assay, other kinases: FYN. It is filed as biochemical. The note with it: duplicate. How it is done: as §2
Data set [8] has as its target PKCtheta (Homo sapiens, UniProt Q04759). Put plainly: radiometric kinase assay, other kinases: PKCtheta. The format is biochemical. The note with it: duplicate. On the procedure: as §2
For data set [9], the target named is T1, ALK5/TGFB-R1 (Homo sapiens, UniProt P36897).
T1 construct: other kinases of recombinant human cytoplasmic domain
T1 sequence (P36897 148-503 limits assumed): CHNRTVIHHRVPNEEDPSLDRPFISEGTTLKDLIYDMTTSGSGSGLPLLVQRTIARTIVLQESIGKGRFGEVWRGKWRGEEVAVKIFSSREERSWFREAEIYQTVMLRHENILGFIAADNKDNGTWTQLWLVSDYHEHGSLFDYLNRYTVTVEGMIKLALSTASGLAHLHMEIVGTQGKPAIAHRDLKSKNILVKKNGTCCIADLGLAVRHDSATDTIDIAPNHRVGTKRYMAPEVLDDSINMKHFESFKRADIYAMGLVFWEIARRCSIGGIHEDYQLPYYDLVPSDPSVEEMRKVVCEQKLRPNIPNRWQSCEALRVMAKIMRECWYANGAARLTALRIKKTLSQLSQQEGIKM
Put plainly: radiometric kinase assay, other kinases: ALK5/TGFB-R1. It is filed as biochemical. The note with it: duplicate. How it is done: as §2

Data set [10] deals with BTK (Homo sapiens, UniProt Q06187). Put plainly: radiometric kinase assay, other kinases: BTK. The format is biochemical. The note with it: duplicate. On the procedure: as §2
BTK, sequence (Q06187 whole entry): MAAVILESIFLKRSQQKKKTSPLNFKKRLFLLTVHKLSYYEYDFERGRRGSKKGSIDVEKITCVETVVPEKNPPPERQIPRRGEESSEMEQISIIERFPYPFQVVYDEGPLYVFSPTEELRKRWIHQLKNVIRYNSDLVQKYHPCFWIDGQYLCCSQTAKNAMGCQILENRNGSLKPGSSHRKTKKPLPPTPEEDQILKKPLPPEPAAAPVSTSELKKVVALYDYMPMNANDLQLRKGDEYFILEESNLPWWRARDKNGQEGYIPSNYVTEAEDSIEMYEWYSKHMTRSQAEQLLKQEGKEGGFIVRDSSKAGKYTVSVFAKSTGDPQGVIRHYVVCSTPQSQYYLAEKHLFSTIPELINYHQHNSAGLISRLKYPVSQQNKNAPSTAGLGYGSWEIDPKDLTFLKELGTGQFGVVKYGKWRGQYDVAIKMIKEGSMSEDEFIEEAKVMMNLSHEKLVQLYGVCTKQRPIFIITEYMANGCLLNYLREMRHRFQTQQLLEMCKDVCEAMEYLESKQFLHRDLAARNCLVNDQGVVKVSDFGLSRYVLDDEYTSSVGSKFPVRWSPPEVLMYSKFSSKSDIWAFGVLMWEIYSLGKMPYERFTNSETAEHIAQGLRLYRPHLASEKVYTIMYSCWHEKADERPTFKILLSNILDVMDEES
In data set [11] the target is PKCmu/PKD1 (Homo sapiens, UniProt Q15139). Put plainly: radiometric kinase assay, other kinases: PKCmu/PKD1. It is filed as biochemical. As to conditions: duplicate. How it is done: as §2
PKCmu/PKD1, sequence (Q15139 whole entry): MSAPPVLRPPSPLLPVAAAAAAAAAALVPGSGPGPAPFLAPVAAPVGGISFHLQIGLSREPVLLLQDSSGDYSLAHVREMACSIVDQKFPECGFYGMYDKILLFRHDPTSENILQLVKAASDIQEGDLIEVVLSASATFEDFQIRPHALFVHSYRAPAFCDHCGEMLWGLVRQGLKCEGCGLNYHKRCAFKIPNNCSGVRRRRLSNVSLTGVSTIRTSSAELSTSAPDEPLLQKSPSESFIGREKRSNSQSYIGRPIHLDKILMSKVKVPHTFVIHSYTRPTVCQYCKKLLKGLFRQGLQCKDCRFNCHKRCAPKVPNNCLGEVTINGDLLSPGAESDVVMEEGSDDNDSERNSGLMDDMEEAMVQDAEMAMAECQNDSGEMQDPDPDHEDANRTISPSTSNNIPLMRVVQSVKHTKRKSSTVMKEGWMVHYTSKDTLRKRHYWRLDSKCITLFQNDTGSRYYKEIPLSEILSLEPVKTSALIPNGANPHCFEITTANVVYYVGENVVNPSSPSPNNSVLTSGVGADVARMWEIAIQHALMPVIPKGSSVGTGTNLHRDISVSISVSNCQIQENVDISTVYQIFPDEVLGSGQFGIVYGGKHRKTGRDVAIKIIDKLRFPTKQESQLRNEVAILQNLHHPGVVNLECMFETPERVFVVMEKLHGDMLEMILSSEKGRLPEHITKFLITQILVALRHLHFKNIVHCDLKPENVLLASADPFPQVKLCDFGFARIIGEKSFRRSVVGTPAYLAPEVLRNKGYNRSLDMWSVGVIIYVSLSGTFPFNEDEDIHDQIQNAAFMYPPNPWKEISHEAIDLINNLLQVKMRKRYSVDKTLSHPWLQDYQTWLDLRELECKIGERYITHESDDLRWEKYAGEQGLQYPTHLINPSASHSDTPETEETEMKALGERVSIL
Data set [12] deals with PKG1a (Homo sapiens, UniProt Q13976). Put plainly: radiometric kinase assay, other kinases: PKG1a. The note with it: duplicate. The format is biochemical. On the procedure: as §2
PKG1a, sequence (Q13976 whole entry): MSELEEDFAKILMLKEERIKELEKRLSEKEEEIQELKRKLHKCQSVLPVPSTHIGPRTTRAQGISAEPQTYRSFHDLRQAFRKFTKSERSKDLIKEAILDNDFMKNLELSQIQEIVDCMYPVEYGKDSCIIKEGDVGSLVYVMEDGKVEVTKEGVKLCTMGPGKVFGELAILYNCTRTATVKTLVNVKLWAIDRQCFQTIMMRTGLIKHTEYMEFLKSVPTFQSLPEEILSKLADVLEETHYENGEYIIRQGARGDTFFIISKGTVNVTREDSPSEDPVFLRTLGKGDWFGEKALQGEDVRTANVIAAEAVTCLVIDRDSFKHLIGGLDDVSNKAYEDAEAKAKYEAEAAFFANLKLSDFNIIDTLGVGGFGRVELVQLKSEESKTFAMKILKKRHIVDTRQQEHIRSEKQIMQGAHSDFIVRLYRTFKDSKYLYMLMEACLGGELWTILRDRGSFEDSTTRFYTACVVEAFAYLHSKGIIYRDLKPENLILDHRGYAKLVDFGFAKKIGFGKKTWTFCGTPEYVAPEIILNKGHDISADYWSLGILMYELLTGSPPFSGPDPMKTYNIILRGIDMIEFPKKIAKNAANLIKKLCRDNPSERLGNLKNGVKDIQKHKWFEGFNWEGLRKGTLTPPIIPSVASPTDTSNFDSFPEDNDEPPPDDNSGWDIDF
In data set [13] the test system is Panc-1 human pancreatic cancer cells. Put plainly: Cell Viability and Proliferation Assay, Panc-1. It is filed as cell-based. As to conditions: after 24 incubation. On the procedure:
as §1

Data set [14] in a line: Pharmacokinetics and bioavailability in CD-1 mice. The note with it: in vivo. How it is done:
Pharmacokinetic and bioavailabilities after oral and intraperitoneal (i.p.) treatment bioavailability in CD-1 mice. Pharmacokinetics and bioavailability of after oral and i.p. treatment in CD-1 mice (n=4 per dose group) are determined.

In data set [15] the target is PKA (Homo sapiens, UniProt P17612). Put plainly: radiometric kinase assay, other kinases: PKA. It is filed as biochemical. As to conditions: duplicate. On the procedure:
as §2

Where two headings read alike, the source gives them in different places. Where only a bound is given, the exact number is not on record here.

FYN, sequence (P06241 whole entry): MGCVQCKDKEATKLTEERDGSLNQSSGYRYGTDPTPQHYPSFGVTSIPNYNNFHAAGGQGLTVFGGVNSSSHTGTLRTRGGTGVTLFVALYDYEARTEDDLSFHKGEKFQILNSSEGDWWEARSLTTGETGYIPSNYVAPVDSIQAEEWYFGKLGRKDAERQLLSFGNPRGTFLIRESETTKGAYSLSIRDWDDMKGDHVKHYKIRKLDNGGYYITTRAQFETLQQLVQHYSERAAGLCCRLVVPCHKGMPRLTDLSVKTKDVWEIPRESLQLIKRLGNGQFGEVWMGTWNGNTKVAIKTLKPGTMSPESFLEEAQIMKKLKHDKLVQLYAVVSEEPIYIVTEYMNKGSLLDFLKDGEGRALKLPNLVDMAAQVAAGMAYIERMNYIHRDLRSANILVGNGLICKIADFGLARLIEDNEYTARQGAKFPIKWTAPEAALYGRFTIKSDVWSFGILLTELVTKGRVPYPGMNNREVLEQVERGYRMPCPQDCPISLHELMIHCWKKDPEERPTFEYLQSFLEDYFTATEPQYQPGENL
ARAF, sequence (P10398 whole entry): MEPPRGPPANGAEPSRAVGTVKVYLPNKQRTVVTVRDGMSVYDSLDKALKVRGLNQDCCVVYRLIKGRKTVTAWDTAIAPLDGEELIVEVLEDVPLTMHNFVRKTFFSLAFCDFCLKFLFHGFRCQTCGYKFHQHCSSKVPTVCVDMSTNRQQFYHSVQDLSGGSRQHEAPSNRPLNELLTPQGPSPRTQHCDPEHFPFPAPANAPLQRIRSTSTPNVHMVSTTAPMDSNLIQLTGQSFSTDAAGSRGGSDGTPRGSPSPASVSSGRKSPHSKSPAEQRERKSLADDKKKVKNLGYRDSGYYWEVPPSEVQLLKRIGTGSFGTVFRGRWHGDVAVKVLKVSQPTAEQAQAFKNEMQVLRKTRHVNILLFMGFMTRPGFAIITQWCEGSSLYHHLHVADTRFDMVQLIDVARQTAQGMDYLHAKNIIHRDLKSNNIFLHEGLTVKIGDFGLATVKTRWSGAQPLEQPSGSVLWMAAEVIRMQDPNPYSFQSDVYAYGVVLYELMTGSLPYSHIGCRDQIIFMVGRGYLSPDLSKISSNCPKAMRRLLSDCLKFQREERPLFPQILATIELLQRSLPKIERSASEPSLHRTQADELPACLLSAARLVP

`Nc1c(N2CCN(C3CCCCC3)CC2)cc(Nc2ccc(C(=O)O)cc2)c2c1C(=O)c1ccccc1C2=O` [Compound 12, 4-{[4-amino-3-(4-cyclohexylpiperazin-1-yl)-9,10-dioxo-9,10-dihydroanthracen-1-yl]amino}benzoic acid]: the IC50 is 2 to 5 µM in data set [1]; about 5 µM in data set [2]; over 10 µM in [4]; over 10 µM in data set [5]; over 10 µM in data set [6]; over 10 µM in data set [7]. Moreover, the IC50 is over 10 µM in data set [8]; over 10 µM in [9]; over 10 µM in data set [10]; over 10 µM in data set [11]; over 10 µM in data set [12]; 2 to 5 µM in data set [13]. Also, the IC50 in data set [15] was over 10 µM. In addition, in data set [3], the relative analgesic effect result was “about 85%”. Further, the half-life in [14] (CD-1, mouse, ip, 50 mg/kg) was about 3.5 h; in [14] (CD-1, mouse, iv), about 1 h; in [14] (CD-1, mouse, po, 50 mg/kg) it was about 4.5 h. Moreover, the bioavailability in data set [14] (CD-1, mouse, po, 50 mg/kg) was about 100%; in data set [14] (mouse, ip, CD-1 mice, 50 mg/kg i.p. dosing, read-out: i.p. bioavailability), about 100%.

For orientation: IC50 means the concentration that gives 50% inhibition. What is called half-life is the time in which the quantity being followed falls by half. In general, bioavailability refers to dose-corrected exposure relative to a reference, in per cent.

(Values after patent US9855265B2, “Methods for treating cancer with TrkA receptor tyrosine kinase antagonists” (VM Oncology LLC, priority 2014, dated 2018).)
